pKi: −log10 of the molar value.

One experiment concerns the target T1, recombinant rat FAAH (rFAAH) (Rattus norvegicus, UniProt P97612).
T1 construct: The truncated rat FAAH (rFAAH) was expressed in E. coli and purified; made in house; host or cells: Escherichia coli
T1 sequence (P97612 30-579 limits assumed): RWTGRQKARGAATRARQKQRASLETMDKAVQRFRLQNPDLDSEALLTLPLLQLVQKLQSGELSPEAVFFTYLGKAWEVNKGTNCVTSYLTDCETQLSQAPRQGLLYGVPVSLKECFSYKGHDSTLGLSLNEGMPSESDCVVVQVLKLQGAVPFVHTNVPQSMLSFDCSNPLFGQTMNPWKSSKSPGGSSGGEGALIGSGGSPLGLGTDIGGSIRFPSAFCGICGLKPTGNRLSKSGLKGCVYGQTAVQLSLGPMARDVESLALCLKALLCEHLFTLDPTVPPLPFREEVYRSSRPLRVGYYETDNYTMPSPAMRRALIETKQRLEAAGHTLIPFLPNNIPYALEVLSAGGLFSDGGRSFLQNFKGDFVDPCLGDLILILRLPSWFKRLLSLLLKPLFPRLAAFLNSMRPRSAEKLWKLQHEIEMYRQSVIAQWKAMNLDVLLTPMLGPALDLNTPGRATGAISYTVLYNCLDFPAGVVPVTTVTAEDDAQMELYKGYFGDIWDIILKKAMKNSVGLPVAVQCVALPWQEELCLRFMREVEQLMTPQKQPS
The experiment can be described thus: Enzyme assay: inhibition of purified recombinant rat FAAH, 14C-oleamide hydrolysis, Ki by Dixon plot. Type of experiment: biochemical. The conditions noted are these: (S)-enantiomer. On the procedure:
Enzyme assays were performed at 20-23° C. with purified recombinant rat FAAH expressed in Escherichia coli or with solubilized COS-7 membrane extracts from cells transiently transfected with human FAAH cDNA (where specifically indicated) in a buffer of 125 mM Tris/1 mM EDTA/0.2% glycerol/0.02% Triton X-100/0.4 mM Hepes, pH 9.0.
^14C-labeled oleamide was prepared from ^14C-labeled oleic acid. The truncated rat FAAH (rFAAH) was expressed in E. coli and purified. The purified recombinant rFAAH was used in the inhibition assays unless otherwise indicated. The full-length human FAAH (hFAAH) was expressed in COS-7 cells as described, and the lysate of hFAAH-transfected COS-7 cells was used in the inhibition assays where explicitly indicated.
The inhibition assays were performed as follows. […] The enzyme reaction was terminated by transferring 20 μL of the reaction mixture to 500 μL of 0.1 N HCl at three different time points. The ^14C-labeled oleamide (substrate) and oleic acid (product) were extracted with EtOAc and analyzed by TLC as detailed. The Ki of the inhibitor was calculated using a Dixon plot as described (standard deviations are provided in the Supporting Information tables).
For the compound `O=C(c1ncco1)C1CCc2ccccc2C1` (centres unmarked) [Compound 37, Oxazol-2-yl(1,2,3,4-tetrahydronaphthalen-2-yl)methanone], the “improvement in potency relative to the corresponding oxazole 9” value is reported as 4-5 fold.

Still in this experiment, the particulars now being: Ki, Table 2, (R)-enantiomer, 1,2,3,4-tetrahydronaphthalene C2 acyl side chain.
The term pKi denotes −log10 of the Ki, conventionally taken in molar units. For `O=C(O)c1cccc(-c2cnc(C(=O)C3CCc4cc(-c5ccccc5)ccc4C3)o2)n1` (single isomer, unassigned) [(R)-8, 6-(2-(6-Phenyl-1,2,3,4-tetrahydronaphthalene-2-carbonyl)oxazol-5-yl)picolinic acid], the pKi was 6.30.

Regarding `COC(=O)c1cnc(C(=O)C2CCc3cc(-c4ccccc4)ccc3C2)o1` (single isomer, unassigned) [(R)-4, Methyl 2-(6-Phenyl-1,2,3,4-tetrahydronaphthalene-2-carbonyl)oxazole-5-carboxylate], the pKi was 5.85.

As for `O=C(c1ncc(-c2ccccn2)o1)C1CCc2cc(OCc3ccccc3)ccc2C1` (single isomer, unassigned) [(R)-18, (6-(Benzyloxy)-1,2,3,4-tetrahydronaphthalen-2-yl)(5-(pyridin-2-yl)oxazol-2-yl)methanone], the pKi is 6.52.

With `COC(=O)c1cccc(-c2cnc(C(=O)C3CCc4cc(-c5ccccc5)ccc4C3)o2)n1` (single isomer, unassigned) [(R)-7, Methyl 6-(2-(6-Phenyl-1,2,3,4-tetrahydronaphthalene-2-carbonyl)oxazol-5-yl)picolinate], the pKi was 6.15.

In the case of `N#Cc1cnc(C(=O)C2CCc3cc(OCc4ccccc4)ccc3C2)o1` (single isomer, unassigned) [(R)-17, 2-(6-(Benzyloxy)-1,2,3,4-tetrahydronaphthalene-2-carbonyl)oxazole-5-carbonitrile], the pKi was 6.92.

On to `O=C(c1ncc(-c2ccccn2)o1)C1CCc2cc(Oc3ccccc3)ccc2C1` (single isomer, unassigned) [(R)-12, (6-Phenoxy-1,2,3,4-tetrahydronaphthalen-2-yl)(5-(pyridin-2-yl)oxazol-2-yl)methanone], for which the pKi is 6.54.

Still in this experiment, the particulars now being: Ki, Table 2, (S)-enantiomer, 1,2,3,4-tetrahydronaphthalene C2 acyl side chain.
Turning to `O=C(c1ncco1)C1CCc2cc(Oc3ccccc3)ccc2C1` (single isomer, unassigned) [(S)-9, Oxazol-2-yl(6-phenoxy-1,2,3,4-tetrahydronaphthalen-2-yl)methanone], the negative-log Ki (pKi) is 8.66.

As to `O=C(c1ncc(-c2ccccn2)o1)C1CCc2cc(-c3ccccc3)ccc2C1` (single isomer, unassigned) [(S)-6, (6-Phenyl-1,2,4-tetrahydronaphthalen-2-yl)(5-(pyridin-2-yl)oxazol-2-yl)methanone], the pKi is 8.14.

`COC(=O)c1cnc(C(=O)C2CCc3cc(-c4ccccc4)ccc3C2)o1` (single isomer, unassigned) [(S)-4, Methyl 2-(6-Phenyl-1,2,3,4-tetrahydronaphthalene-2-carbonyl)oxazole-5-carboxylate]: the pKi is 7.26.

For `O=C(c1ncc(-c2ccccn2)o1)C1CCc2cc(Oc3ccccc3)ccc2C1` (single isomer, unassigned) [(S)-12, (6-Phenoxy-1,2,3,4-tetrahydronaphthalen-2-yl)(5-(pyridin-2-yl)oxazol-2-yl)methanone], the pKi was 8.36.

Take `O=C(c1ncco1)C1CCc2cc(-c3ccccc3)ccc2C1` (single isomer, unassigned) [(S)-3, Oxazol-2-yl(6-phenyl-1,2,3,4-tetrahydronaphthalen-2-yl)methanone]: the pKi was 7.24.

With `N#Cc1cnc(C(=O)C2CCc3cc(Oc4ccccc4)ccc3C2)o1` (single isomer, unassigned) [(S)-11, 2-(6-Phenoxy-1,2,3,4-tetrahydronaphthalene-2-carbonyl)oxazole-5-carbonitrile], the pKi is 8.89.

Consider `COC(=O)c1cnc(C(=O)C2CCc3cc(Oc4ccccc4)ccc3C2)o1` (single isomer, unassigned) [(S)-10, Methyl 2-(6-Phenoxy-1,2,3,4-tetrahydronaphthalene-2-carbonyl)oxazole-5-carboxylate], for which the pKi was 8.27.

Regarding `COC(=O)c1cnc(C(=O)C2CCc3cc(OCc4ccccc4)ccc3C2)o1` (single isomer, unassigned) [(S)-16, Methyl 2-(6-(Benzyloxy)-1,2,3,4-tetrahydronaphthalene-2-carbonyl)oxazole-5-carboxylate], the pKi was 8.54.

In the case of `O=C(c1ncc(-c2ccccn2)o1)C1CCc2cc(OCc3ccccc3)ccc2C1` (single isomer, unassigned) [(S)-18, (6-(Benzyloxy)-1,2,3,4-tetrahydronaphthalen-2-yl)(5-(pyridin-2-yl)oxazol-2-yl)methanone], the pKi is 8.49.

As to `O=C(c1ncco1)C1CCc2cc(OCc3ccccc3)ccc2C1` (single isomer, unassigned) [(S)-15, (6-(Benzyloxy)-1,2,3,4-tetrahydronaphthalen-2-yl)(oxazol-2-yl)methanone], the negative logarithm of the Ki (pKi) is 8.21.

Staying with this experiment, now noted: Ki, Table 3, (R)-enantiomer, indane C2 acyl side chain.
Take `O=C(c1ncco1)C1Cc2ccc(Oc3ccccc3)cc2C1` (single isomer, unassigned) [(R)-26, Oxazol-2-yl(5-phenoxyindan-2-yl)methanone]: the pKi was 6.70.

With `O=C(O)c1cccc(-c2cnc(C(=O)C3Cc4ccc(OCc5ccccc5)cc4C3)o2)n1` (single isomer, unassigned) [(R)-33, 6-(2-(5-(Benzyloxy)indane-2-carbonyl)oxazol-5-yl)picolinic acid], the pKi is 6.18.

Take `COC(=O)c1cccc(-c2cnc(C(=O)C3Cc4ccc(OCc5ccccc5)cc4C3)o2)n1` (single isomer, unassigned) [(R)-32, Methyl 6-(2-(5-(Benzyloxy)indane-2-carbonyl)oxazol-5-yl)picolinate]: the pKi is 6.89.

Regarding `O=C(c1ncc(-c2ccccn2)o1)C1Cc2ccc(OCc3ccccc3)cc2C1` (single isomer, unassigned) [(R)-31, (5-(Benzyloxy)indan-2-yl)(5-(pyridin-2-yl)oxazol-2-yl)methanone], the pKi is 6.96.

On to `O=C(c1ncc(-c2ccccn2)o1)C1Cc2ccc(Oc3ccccc3)cc2C1` (single isomer, unassigned) [(R)-27, (5-Phenoxyindan-2-yl)(5-(pyridin-2-yl)oxazol-2-yl)methanone], for which the negative logarithm of the Ki (pKi) is 7.38.

Still in this experiment, the particulars now being: Ki, Table 3, tentatively assigned (S)-enantiomer, indane C2 acyl side chain.
Turning to `O=C(O)c1cccc(-c2cnc(C(=O)C3Cc4ccc(Oc5ccccc5)cc4C3)o2)n1` (single isomer, unassigned) [(S)-29, 6-(2-(5-Phenoxyindane-2-carbonyl)oxazol-5-yl)picolinic acid], the pKi is 7.15.

Regarding `COC(=O)c1cccc(-c2cnc(C(=O)C3Cc4ccc(Oc5ccccc5)cc4C3)o2)n1` (single isomer, unassigned) [(S)-28], the pKi is 7.01.

With `O=C(O)c1cccc(-c2cnc(C(=O)C3Cc4ccc(OCc5ccccc5)cc4C3)o2)n1` (single isomer, unassigned) [(S)-33, 6-(2-(5-(Benzyloxy)indane-2-carbonyl)oxazol-5-yl)picolinic acid], the pKi is 7.29.

For the compound `O=C(c1ncc(-c2ccccn2)o1)C1Cc2ccc(Oc3ccccc3)cc2C1` (single isomer, unassigned) [(S)-27, (5-Phenoxyindan-2-yl)(5-(pyridin-2-yl)oxazol-2-yl)methanone], the pKi is 8.68.

Staying with this experiment, now noted: Ki, Table 4, (R)-enantiomer, additional FAAH inhibitors.
In the case of `O=C(c1nnco1)C1CCc2cc(Oc3ccccc3)ccc2C1` (single isomer, unassigned) [(R)-34, (1,3,4-Oxadlazol-2-yl)(6-phenoxy-1,2,3,4-tetrahydronaphthalen-2-yl)methanone], the pKi is 8.85.

The experiment is the same for the next values; noted with them: Ki, Table 4, (S)-enantiomer, additional FAAH inhibitors.
As for `O=C(c1ncco1)C1CCc2ccccc2C1` (single isomer, unassigned) [(S)-37, Oxazol-2-yl(1,2,3,4-tetrahydronaphthalen-2-yl)methanone], the pKi is 5.29.

Take `O=C(c1ncc(-c2ccccn2)o1)C1CCc2ccccc2C1` (single isomer, unassigned) [(S)-38, (5-(Pyridin-2-yl)oxazol-2-yl)(1,2,3,4-tetrahydronaphthalen-2-yl)methanone]: the negative-log Ki (pKi) was 6.37.

The same experiment, now with this note: Ki, first of the two enantiomers, text b169, enantiomer distinction 5.1 vs 12 μM.
For `O=C(c1ncco1)C1CCc2ccccc2C1` (centres unmarked) [Compound 37, Oxazol-2-yl(1,2,3,4-tetrahydronaphthalen-2-yl)methanone], the negative logarithm of the Ki (pKi) is 5.29.

Staying with this experiment, now noted: Ki, second of the two enantiomers, text b169, enantiomer distinction 5.1 vs 12 μM.
On to `O=C(c1ncco1)C1CCc2ccccc2C1` (centres unmarked) [Compound 37, Oxazol-2-yl(1,2,3,4-tetrahydronaphthalen-2-yl)methanone], for which the pKi is 4.92.

The experiment is the same for the next values; noted with them: ratio of FAAH inhibition between enantiomers.
In the case of `O=C(c1ncco1)C1CCc2ccccc2C1` (centres unmarked) [Compound 37, Oxazol-2-yl(1,2,3,4-tetrahydronaphthalen-2-yl)methanone], the “potency of more active (S)-enantiomer over (R)-enantiomer” value is listed as “ca. 2 fold”.

For the origin of these results see patent US9504675B2, “Alpha-ketoheterocycles and methods of making and using” (The Scripps Research Institute, priority 2011, dated 2016).
